{"source": "patent US11174301B2", "about": "(Takeda Pharmaceutical Company Limited, priority 2017, dated 2021)", "format_in_all_cases": "in vivo", "key": {"[1]": {"test_system": "C57BL/6J mice", "test": "Oral glucose tolerance test (2)", "conditions": "3 nmol/kg, s.c. 72 hours before glucose loading, 30 minutes after oral glucose, control group = 100", "experimental": "Oral Glucose Tolerance Test (2)\nAn oral glucose tolerance test (OGTT) was carried out using C57BL/6J mice with a […]."}, "[2]": {"test_system": "ferrets", "test": "Morphine-induced acute emetic model in ferrets", "conditions": "for Ferrets in which the vomiting symptom was observed: 30 nmol/kg s.c., morphine 0.6 mg/kg s.c. 4 hours after administration, monitored 60 minutes, FIG. 6A; for Ferrets in which the vomiting symptom was observed / Vomiting symptom, morphine 120 hours after administration: n=4; for Vomiting symptom, morphine 120 hours after administration: 144 μg/kg (30 nmol/kg) s.c., morphine 0.6 mg/kg s.c. 120 hours after administration, FIG. 6B; for Morphine-induced emesis: 1 nmol/kg s.c. 30 minutes before morphine (0.6 mg/kg, s.c.)", "experimental": "4. Effect of Subcutaneously Administered GIP Agonist Analogue in Morphine-Induced Acute Emetic Model\nMale ferrets (4-month-old) were repeatedly used until 8-month-old. To evaluate the antiemetic effect, the GIP agonist analogues other than natural human GIP were subcutaneously administered 30 minutes before morphine administration. Natural human GIP was subcutaneously administered 5 minutes before morphine administration.\nAt the time of each of 4 hours, or 120 hours after administration, 0.6 mg/kg of morphine was subcutaneously administered. Up to 60 minutes after morphine administration, the condition of the ferrets was monitored to record the frequencies and time points of abdominal contraction motions, vomiting behaviors, licking with the tongue, and fidgety behavior occurring."}, "[3]": {"test_system": "ferrets", "test": "Cisplatin-induced delayed vomiting model in ferrets", "conditions": "monitored 72 hours", "experimental": "Up to 72 hours after cisplatin administration, the condition of the ferrets was monitored to record the frequencies and time points of abdominal contraction motions and vomiting behaviors occurring."}, "[4]": {"test_system": "C57BL/6J mice", "test": "Oral glucose tolerance test (1)", "conditions": "0.03 nmol/kg, s.c. 30 minutes before glucose loading, control group = 100; for Rate of increase in blood glucose level (%) 30 min: 30 minutes after oral glucose; for Rate of increase in blood glucose level (%) 60 min: 60 minutes after oral glucose", "experimental": "Oral Glucose Tolerance Test (1)\nAn oral glucose tolerance test (OGTT) was carried out using C57BL/6J mice with a […]."}, "[5]": {"test_system": "male C57BL/6J mice", "test": "Conditioned taste aversion test in mice (PYY-1119-induced)", "experimental": "Test Example 3: Conditioned Taste Aversion Test in Mice (FIG. 1A, FIG. 1B)\nAdditionally, the test compound or a solvent is subcutaneously administered simultaneously with PYY-1119.\nOn day 2, only a solvent is administered 10 minutes after presenting tap water.\nOn day 4, only tap water is presented.\nOn day 5, a test of selection from the bottles of saccharine water and tap water is carried out and preferential selection of saccharine water is evaluated."}, "[6]": {"test_system": "beagles", "test": "PYY-1119-induced vomiting in dogs", "conditions": "for Frequency of vomiting: 2-hour observation"}, "[7]": {"test_system": "ferrets", "test": "Cisplatin-induced acute vomiting model in ferrets", "experimental": "Test Example 4: Vomiting Suppression Test in Ferrets\nThe ferret test was carried out by Nissei Bilis Co., Ltd. (Shiga prefecture, Japan). Cisplatin (10 mg/kg i.p.) was administered to male ferrets (10-week-old, n=6) to induce acute vomiting. […] The frequency of emesis (feeling queasy, vomiting) was monitored over a period of 8 hours after cisplatin administration.\nUp to 6 hours after cisplatin administration, the condition of the ferrets was monitored to record the frequencies and time points of abdominal contraction motions and vomiting behaviors occurring."}}}
{"substance": "H-MeTyr-Aib-Glu-Gly-Thr-Iva-Ile-Ser-Asp-Tyr-Ser-Ile-Aib-Leu-Asp-Arg-Lys(Oda-GGGGG-)-Ala-Gln-Aib-Asn-Phe-Val-Asn-Trp-Iva-Leu-Ala-Gln-Arg-Pro-Ser-Ser-Gly-Ala-Pro-Pro-Pro-Ser-NH2 [Compound 349]", "values": [{"measurement": "Rate of increase in blood glucose level (%) 72 hr", "setting": "[1]", "result": 69, "unit": "%"}, {"measurement": "Ferrets in which the vomiting symptom was observed", "setting": "[2]", "result": "none of the 4 ferrets"}, {"measurement": "Vomiting symptom, morphine 120 hours after administration", "setting": "[2]", "result": "suppression of the vomiting symptom was noted"}]}
{"substance": "H-MeTyr-Aib-Glu-Gly-Thr-Iva-Ile-Ser-Asp-Tyr-Ser-Ile-Aib-Lys(Eda-GGGGG-)-Asp-Arg-Aib-Ala-Gln-Aib-Asn-Phe-Val-Asn-Trp-Iva-Leu-Ala-Gln-Arg-Pro-Ser-Ser-Gly-Ala-Pro-Pro-Pro-Ser-NH2 [Compound 341]", "values": [{"measurement": "Rate of increase in blood glucose level (%) 72 hr", "setting": "[1]", "result": 47, "unit": "%"}, {"measurement": "Ferrets in which the vomiting symptom was observed", "setting": "[2]", "result": "none of the 4 ferrets"}, {"measurement": "Vomiting symptom, morphine 120 hours after administration", "setting": "[2]", "result": "none of the 4 ferrets"}, {"measurement": "Cisplatin-induced delayed vomiting symptom", "setting": "[3]; 144 μg/kg (30 nmol/kg) s.c. 34 hours after cisplatin 5 mg/kg i.p.", "result": "suppression of the vomiting symptom was noted"}]}
{"substance": "H-Tyr-Aib-Glu-Gly-Thr-Val-Val-Ser-Leu-Tyr-Ser-Ile-Aib-Leu-Asp-Arg-Gln-Ala-Gln-Aib-Glu-Phe-Val-Arg-Trp-Leu-Leu-Arg-Gly-Gly-Pro-Ser-Ser-Gly-Ala-Pro-Pro-Pro-Ser-Arg-NH2 [Compound 30]", "values": [{"measurement": "Rate of increase in blood glucose level (%) 30 min", "setting": "[4]", "result": 96, "unit": "%"}, {"measurement": "Rate of increase in blood glucose level (%) 60 min", "setting": "[4]", "result": 85, "unit": "%"}]}
{"substance": "H-Tyr-Aib-Glu-Gly-Thr-Val-Val-Ser-Leu-Tyr-Ser-Ile-Aib-Leu-Asp-Lys-Gln-Ala-Gln-Aib-Glu-Phe-Val-Lys-Trp-Aib-Leu-Lys-Gly-Gly-Pro-Ser-Ser-Gly-Ala-Pro-Pro-Pro-Ser-Lys-NH2 [Compound 42]", "values": [{"measurement": "Rate of increase in blood glucose level (%) 30 min", "setting": "[4]", "result": 70, "unit": "%"}, {"measurement": "Rate of increase in blood glucose level (%) 60 min", "setting": "[4]", "result": 43, "unit": "%"}]}
{"substance": "H-Tyr-Aib-Glu-Gly-Thr-Val-Val-Ser-Leu-Tyr-Ser-Ile-Aib-Leu-Asp-Lys-Gln-Ala-Gln-Aib-Glu-Phe-Val-Lys-Trp-Leu-Leu-Lys-Gly-Gly-Pro-Ser-Ser-Gly-Ala-Pro-Pro-Pro-Ser-Lys-NH2 [Compound 6]", "values": [{"measurement": "Morphine-induced emesis", "setting": "[2]; FIG. 3, FIG. 4", "result": "completely attenuated"}, {"measurement": "PYY-1119-induced taste aversion", "setting": "[5]; 1, 3, 10, 30 or 100 nmol/kg s.c. simultaneously with PYY-1119 (10 nmol/kg, s.c.), FIG. 1A", "result": "suppressed the PYY-1119-induced taste aversion in a dose-dependent manner"}, {"measurement": "Frequency of vomiting", "setting": "[6]; 150 nmol/kg s.c. 10 minutes before PYY-1119 (10 μg/kg, s.c.), FIG. 7A", "result": "0 to 3", "unit": "times"}, {"measurement": "Rate of increase in blood glucose level (%) 30 min", "setting": "[4]", "result": 56, "unit": "%"}, {"measurement": "Rate of increase in blood glucose level (%) 60 min", "setting": "[4]", "result": 31, "unit": "%"}, {"measurement": "Cisplatin-induced acute emesis (frequency of emesis)", "setting": "[7]; 167 nmol/kg/hour subcutaneously injected from 1 hour before cisplatin (10 mg/kg i.p.), monitored 8 hours, FIG. 2A", "result": "completely eliminated the acute emesis"}]}
{"substance": "Methyl-Tyr-Aib-Glu-Gly-Thr-Iva-Ile-Ser-Asp-Tyr-Ser-Ile-Aib-Leu-Asp-Arg-Aib-Ala-Gln-Aib-Asn-Phe-Val-Asn-Trp-Iva-Leu-Ala-Gln-Arg-Pro-Ser-Ser-Gly-Ala-Pro-Pro-Pro-Ser-Arg-NH2 [Compound 113]", "values": [{"measurement": "Morphine-induced emesis", "setting": "[2]; 0.1 nmol/kg, FIG. 5", "result": "suppressed the morphine-induced emesis"}, {"measurement": "Rate of increase in blood glucose level (%) 30 min", "setting": "[4]", "result": 48, "unit": "%"}, {"measurement": "Rate of increase in blood glucose level (%) 60 min", "setting": "[4]", "result": 11, "unit": "%"}]}
{"substance": "Methyl-Tyr-Aib-Glu-Gly-Thr-Iva-Ile-Ser-Asp-Tyr-Ser-Ile-Ala-Leu-Asp-Arg-Aib-Ala-Gln-Aib-Asn-Phe-Val-Asn-Trp-Leu-Leu-Ala-Gln-Arg-Pro-Ser-Ser-Gly-Ala-Pro-Pro-Pro-Ser-Arg-NH2 [Compound 104]", "values": [{"measurement": "Morphine-induced emesis", "setting": "[2]; FIG. 3, FIG. 4", "result": "suppressed the morphine-induced emesis"}, {"measurement": "Rate of increase in blood glucose level (%) 30 min", "setting": "[4]", "result": 31, "unit": "%"}, {"measurement": "Rate of increase in blood glucose level (%) 60 min", "setting": "[4]", "result": 8, "unit": "%"}]}
{"substance": "Methyl-Tyr-Aib-Glu-Gly-Thr-Phe-Ile-Ser-Asp-Tyr-Ser-Ile-Ala-Leu-Asp-Arg-Aib-His-Gln-Aib-Asn-Phe-Val-Asn-Trp-Iva-Leu-Ala-Gln-Arg-Pro-Ser-Ser-Gly-Ala-Pro-Pro-Pro-Ser-Arg-NH2 [Compound 117]", "values": [{"measurement": "Morphine-induced emesis", "setting": "[2]; FIG. 3, FIG. 4", "result": "suppressed the morphine-induced emesis"}, {"measurement": "PYY-1119-induced taste aversion", "setting": "[5]; 0.003, 0.01, 0.03, 0.1, 0.3 or 1 nmol/kg s.c. simultaneously with PYY-1119 (10 nmol/kg, s.c.), FIG. 1B", "result": "suppressed the PYY-1119-induced taste aversion in a dose-dependent manner"}, {"measurement": "Frequency of vomiting", "setting": "[6]; 10 nmol/kg s.c. 1 hour before PYY-1119 (10 μg/kg, s.c.), FIG. 7B", "result": "0 to 3", "unit": "times"}, {"measurement": "Average suppression rate of the frequency of vomiting", "setting": "[6]; 10 nmol/kg s.c. 1 hour before PYY-1119, versus medium group", "result": 93, "unit": "%"}, {"measurement": "Rate of increase in blood glucose level (%) 30 min", "setting": "[4]", "result": 51, "unit": "%"}, {"measurement": "Rate of increase in blood glucose level (%) 60 min", "setting": "[4]", "result": 16, "unit": "%"}, {"measurement": "Cisplatin-induced acute vomiting symptom", "setting": "[7]; 0.15, 0.5, 1.5, 5 and 15 μg/kg (0.03, 0.1, 0.3, 1 and 3 nmol/kg) s.c. 1 hour before cisplatin 10 mg/kg i.p., monitored 6 hours, FIG. 2B", "result": "suppression of the vomiting symptom was noted in a dose-dependent manner"}, {"measurement": "Latency of the vomiting symptom (time from cisplatin administration to initial occurrence)", "setting": "[3]; […] (0.3 nmol/kg) or 15 μg/kg (3 nmol/kg) s.c. 34 hours after cisplatin 5 mg/kg i.p., FIG. 2C", "result": "delayed"}]}
{"substance": "Methyl-Tyr-Aib-Glu-Gly-Thr-Phe-Ile-Ser-Asp-Tyr-Ser-Ile-Ala-Leu-Asp-Arg-Ile-Ala-Gln-Gln-Asp-Phe-Val-Asn-Trp-Leu-Leu-Ala-Gln-Arg-Pro-Ser-Ser-Gly-Ala-Pro-Pro-Pro-Ser-Arg-NH2 [Compound 59]", "values": [{"measurement": "Rate of increase in blood glucose level (%) 30 min", "setting": "[4]", "result": 41, "unit": "%"}, {"measurement": "Rate of increase in blood glucose level (%) 60 min", "setting": "[4]", "result": 23, "unit": "%"}]}
